Test results published in patent US20240342116A1, “TARGETING SOX10+ BONE MARROW GLIAL CELLS FOR TREATING MYELOFIBROSIS” (The Trustees of Columbia University in the City of New York, priority 2023, published 2024).
“Also recorded” adds a separate entry of the source.

What was measured:
[1] = tested on: Sox10+ glial cells / ErbB3+ glial cells; assay: Use examples: treatment of a subject with myelofibrosis; settings: after one or more doses
Description: The subject is treated with a combined Jak inhibition and ErbB3 pathway inhibition, using, e.g., an antibody or antibody fragment agent which blocks ErbB3. […] The combined treatment targets both the hematopoietic compartment and the bone marrow niche.

[2] = tested on: Sox10+ glial cells in the bone marrow; assay: Bone marrow glial cell ablation (chemical sympathectomy) with 6-OHDA in the MPLW515L PMF model
[3] = target: T1, alarmin complex (S100A8/A9) (Mus musculus, UniProt P31725); settings: reference 63; cited from earlier work
T1 sequence (P31725 2-113 limits assumed): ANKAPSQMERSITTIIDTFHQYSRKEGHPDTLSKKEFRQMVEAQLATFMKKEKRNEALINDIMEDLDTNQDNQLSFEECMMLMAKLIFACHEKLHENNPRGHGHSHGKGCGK

SMILES | symptom(s) of myelofibrosis [1] | depletion of Sox10+ glial cells in the bone marrow ([2]; 6-OHDA-treated mice) | body weight loss ([2]; 6-OHDA-treated mice, 50 mg/kg i.v. twice on alternating days) | bone marrow cellularity ([2]; MPLW515L PMF mice vs vehicle) | liver size / weight ([2]; MPLW515L PMF mice vs vehicle) | spleen size / weight ([2]; MPLW515L PMF mice vs vehicle) | bone marrow fibrosis ([2]; MPLW515L PMF mice vs vehicle-treated control) | levels of active TGF-β in the bone marrow ([2]; bone marrow fluid, ELISA, MPLW515L PMF mice vs vehicle) | levels of active TGF-β in the serum ([2]; serum, ELISA, MPLW515L PMF mice vs vehicle) | PMF features [3]
NCCc1cc(O)c(O)cc1O [6-OHDA, 6-hydroxydopamine] | one or more improvements | efficiently depleted | no significant body weight loss | significant increase | reduced; also recorded: decreased | reduced; also recorded: decreased | significantly reduced; also recorded: ameliorated | significantly reduced | without affecting | 
COc1cccc2c1c(O)c(C(=O)N(C)c1ccc(C(F)(F)F)cc1)c(=O)n2C [tasquinimod] |  |  |  |  |  |  |  |  |  | ameliorated
